Among the data in ChEMBL document CHEMBL3217543, “Synthesis and biological activity evaluation of N-protected isatin derivatives as inhibitors of ICAM-1 expression on human endothelial cells” (Medchemcomm, 2011) are inhibition, IC50 and viability values, retold here.

pIC50: −log10 of the molar value.

The test system of data set [1] is HUVEC. As to the kind of experiment: Antiinflammatory activity in HUVEC assessed as inhibition of TNFalpha-induced ICAM1 expression at 100 uM pretreated for 2 hrs followed by TNFalpha challenge measured after 16 hrs by cell-ELISA. Conditions: Homo sapiens. The format is functional.
The test system of data set [2] is HUVEC. The data set can be described thus: Antiinflammatory activity in HUVEC assessed as inhibition of TNFalpha-induced ICAM1 expression pretreated for 2 hrs followed by TNFalpha challenge measured after 16 hrs by cell-ELISA. The format is functional, cell-based. The following applies: Homo sapiens.
Data set [3] can be described thus: Cytotoxicity against HUVEC assessed as cell viability at 100 uM after 24 hrs by MTT assay. The format is cell-based. Conditions: human, HUVEC cells; read-out: Activity.
The subject of data set [4] is HUVEC. The data set can be described thus: Antiinflammatory activity in HUVEC assessed as inhibition of LPS-induced ICAM1 expression by cell-ELISA. The format is functional, cell-based. The following applies: Homo sapiens.
Data set [5] relates to HUVEC. As to the kind of experiment: Antiinflammatory activity in HUVEC assessed as inhibition of TNFalpha-induced ICAM1 expression preincubated for 0.5 to 6 hrs followed by TNFalpha challenge measured after 4 hrs by immunostaining assay. Conditions: Homo sapiens. The format is functional, cell-based.
For data set [6], the system named is HUVEC. The data set can be described thus: Antiinflammatory activity in HUVEC assessed as inhibition of TNFalpha-induced ICAM1 expression measured after 6 hrs by FACS flow cytometry. The format is functional, cell-based. Conditions: Homo sapiens.
The subject of data set [7] is HUVEC. As to the kind of experiment: Antiinflammatory activity in HUVEC assessed as inhibition of TNFalpha-induced ICAM1 expression at 100 uM pre-treated before TNFalpha addition by cell-ELISA. The format is functional, cell-based. Conditions: Homo sapiens, TDE = time-dependent effect.

As to `CCOC(=O)/C=C1/C(=O)N(CC(=O)OC)c2ccc(Cl)cc21`, the inhibition at 100 µM with HUVEC [1] came to 67%. Moreover, the pIC50 in the data set on HUVEC [2] is 4.40. Besides, the viability at 24 h, 100 µM in data set [3] came to 97%.

As for `CCOC(=O)/C=C1/C(=O)N(C(=O)OCC)c2ccc(Cl)cc21`, the inhibition at 100 µM with HUVEC [1] came out at 83%. Also, the pIC50 with HUVEC [2] is 4.52. The viability at 24 h, 100 µM in data set [3] is 97%.

With `CCOC(=O)/C=C1/C(=O)N(CC(=O)OC)c2ccc(Br)cc21`, in the data set on HUVEC [1], the inhibition at 100 µM turned out to be 81%. Besides, the pIC50 in the data set with HUVEC [2] was 4.60. In addition, the viability at 24 h, 100 µM in data set [3] came out at 99%.

Take `O=C(O)Cc1ccccc1Nc1c(Cl)cccc1Cl` [DICLOFENAC]: the pIC50 with HUVEC [4] is 3.12.

Turning to `CCOC(=O)/C=C1/C(=O)Nc2ccc(Cl)cc21`, in the data set on HUVEC [1], the inhibition at 100 µM is 56%. The pIC50 in the data set on HUVEC [2] was 4.00. For the same compound, in data set [3], the viability at 24 h, 100 µM stood at 96%.

With `CCOC(=O)/C=C1/C(=O)N(C(=O)OC)c2ccccc21`, the inhibition at 100 µM with HUVEC [1] stood at 57%. Also, the pIC50 in the data set on HUVEC [2] is 4.11. Also, the viability at 24 h, 100 µM in data set [3] was determined as 98%.

Regarding `CCOC(=O)/C=C1/C(=O)N(C(=O)OC)c2ccc(Cl)cc21`, in the data set with HUVEC [1], the inhibition at 100 µM was 77%. Besides, in the data set on HUVEC [2], the pIC50 is 4.40. Further, the viability at 24 h, 100 µM in data set [3] turned out to be 96%.

With `CCOC(=O)/C=C1/C(=O)N(C(=O)OCC)c2ccc(Br)cc21`, the inhibition at 100 µM in the data set on HUVEC [1] came out at 91%. In the data set with HUVEC [2], the pIC50 is 4.82. In addition, in data set [3], the viability at 24 h, 100 µM amounted to 98%.

In the case of `CCOC(=O)/C=C1/C(=O)N(C(=O)OC)c2ccc(F)cc21`, in the data set with HUVEC [1], the inhibition at 100 µM worked out at 61%. The pIC50 with HUVEC [2] is 4.15. Also, in data set [3], the viability at 24 h, 100 µM turned out to be 97%.

With `CCOC(=O)/C=C1/C(=O)Nc2ccc(Br)cc21`, the inhibition at 100 µM in the data set on HUVEC [1] stood at 58%. Also, the pIC50 with HUVEC [2] is 4.00. Besides, the viability at 24 h, 100 µM in data set [3] amounted to 97%.

On to `CCOC(=O)/C=C1/C(=O)N(CC(=O)OC)c2ccc(F)cc21`, for which the inhibition at 100 µM in the data set with HUVEC [1] came out at 52%. Also, in the data set with HUVEC [2], the pIC50 was 4.12. In data set [3], the viability at 24 h, 100 µM came to 96%.

With `CC(=O)N[C@@H](CS)C(=O)O` [ACETYLCYSTEINE], the pIC50 in the data set on HUVEC [5] is 2.00.

As for `CCOC(=O)/C=C1/C(=O)Nc2ccccc21`, the inhibition at 100 µM in the data set with HUVEC [1] came out at 40%. For the same compound, the pIC50 in the data set on HUVEC [2] is below 4.00. In addition, in data set [3], the viability at 24 h, 100 µM is 96%.

For the compound `CC(=O)Oc1ccccc1C(=O)O` [ASPIRIN], the pIC50 in the data set on HUVEC [6] is 2.30.

Regarding `CCOC(=O)/C=C1/C(=O)N(CC(=O)OCC)c2ccc(F)cc21`, in the data set on HUVEC [1], the inhibition at 100 µM is 63%. In the data set with HUVEC [2], the pIC50 is 4.40. For the same compound, the viability at 24 h, 100 µM in data set [3] came to 97%.

Take `CCOC(=O)/C=C1/C(=O)N(C(=O)OC)c2ccc(Br)cc21`: the inhibition at 100 µM in the data set with HUVEC [1] came to 88%. Further, in the data set with HUVEC [2], the pIC50 is 4.60. Further, the viability at 24 h, 100 µM in data set [3] is 98%.

Turning to `CCOC(=O)/C=C1/C(=O)N(C(=O)OCC)c2ccc(F)cc21`, the inhibition at 100 µM with HUVEC [1] amounted to 72%. In addition, the pIC50 with HUVEC [2] was 4.28. The viability at 24 h, 100 µM in data set [3] worked out at 96%.

As for `CCOC(=O)/C=C1/C(=O)N(CC(=O)OCC)c2ccccc21`, the inhibition at 100 µM with HUVEC [1] is 74%. In addition, in the data set with HUVEC [2], the pIC50 is 4.26. In addition, in data set [3], the viability at 24 h, 100 µM was found to be 98%.

Turning to `CCOC(=O)/C=C1/C(=O)N(CC(=O)OCC)c2ccc(Cl)cc21`, in the data set with HUVEC [1], the inhibition at 100 µM came to 74%. Also, the pIC50 in the data set with HUVEC [2] is 4.60. For the same compound, in data set [3], the viability at 24 h, 100 µM was determined as 96%.

Consider `CCOC(=O)/C=C1/C(=O)Nc2ccc(F)cc21`, for which the inhibition at 100 µM in the data set on HUVEC [1] was found to be 31%. Further, the negative logarithm of the IC50 (pIC50) with HUVEC [2] is below 4.00. In data set [3], the viability at 24 h, 100 µM came to 95%.

Consider `CCOC(=O)/C=C1/C(=O)N(C(=O)OCC)c2ccccc21`, for which, in the data set with HUVEC [1], the inhibition at 100 µM stood at 66%. Besides, in the data set with HUVEC [2], the pIC50 was 4.30. Besides, the viability at 24 h, 100 µM in data set [3] came out at 95%.

Consider `CCOC(=O)/C=C1/C(=O)N(CC(=O)OCC)c2ccc(Br)cc21`, for which, in the data set on HUVEC [7], the inhibition result was “tde”. Also, in the data set on HUVEC [1], the inhibition result is “Dose-dependent effect” and the inhibition at 100 µM turned out to be 93%. Besides, in the data set on HUVEC [2], the pIC50 was 5.00. For the same compound, in data set [3], the viability at 24 h, 100 µM was 97%.

Regarding `CCOC(=O)/C=C1/C(=O)N(CC(=O)OC)c2ccccc21`, the inhibition at 100 µM with HUVEC [1] came to 58%. Further, the pIC50 in the data set with HUVEC [2] was 4.15. Besides, the viability at 24 h, 100 µM in data set [3] was 97%.
